Results taken from ChEMBL document CHEMBL3137667, “[Drug-induced liver injury; fourteenth updated edition of the bibliographic database of liver injuries and related drugs]” (Gastroenterol Clin Biol, 2004).

How the values were obtained:
[1] = human, serum
[2] = human
[3] = Highest frequency of acute liver toxicity observed during clinical trials, expressed as a percentage. [column '% AIGUE' in source]; details: human
[4] = human; remark: listed apart in the source
[5] = Highest frequency of moderate liver toxicity observed during clinical trials, expressed as a percentage. [column '% BIOL' in source]; details: human
[6] = human, serum, 4383 h
[7] = human; remark: listed apart in the source
[8] = human; remark: listed apart in the source
[9] = human; remark: listed apart in the source
[10] = human; remark: listed apart in the source
[11] = human, serum; remark: listed apart in the source
[12] = human; remark: listed apart in the source
[13] = human; remark: listed apart in the source
[14] = human; remark: listed apart in the source
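Throughout, for Hepatotoxicity (association with vascular disease): count of indexed literature references reporting vascular liver injury in humans, e.g. peliosis hepatitis, hepatic veno-occlusive disease or Budd-Chiari syndrome.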
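Throughout, for Hepatotoxicity (benign tumour): value is a count of indexed literature references citing a benign tumour confirmed by histopathology.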
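Throughout, for Hepatotoxicity (choleostasis): human cholestatic liver injury, shown by histopathology or by peak ALT or AST elevation over alkaline phosphatase ratio below 2, value counts indexed literature reports.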
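Throughout, for Hepatotoxicity (chronic liver disease): chronic liver injury confirmed by histopathology or persistently raised serum aminotransferase activity beyond 6 months, value given as the count of indexed literature references.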
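Throughout, for Hepatotoxicity (cirrhosis): value is a count of indexed literature references reporting cirrhosis confirmed by histopathology.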
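Throughout, for Hepatotoxicity (cytolytic): human cytolytic liver injury, shown by histopathology or by a ratio above 5 of peak ALT or AST elevation to alkaline phosphatase elevation, value counts indexed references.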
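Throughout, for Hepatotoxicity (granulomatous hepatitis): value is a count of indexed literature references reporting granulomatous liver disease confirmed by histopathology.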
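Throughout, for Hepatotoxicity (malignant tumour): malignant tumour confirmed by histopathology, value gives the count of indexed literature references reporting it.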
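Throughout, for Hepatotoxicity (severe hepatitis): human clinical data: severe hepatitis, meaning potentially life-threatening liver failure or clinically observed cases, the value counts how many indexed literature references report it.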
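Throughout, for Hepatotoxicity (steatosis): steatosis confirmed by histopathology, value is the count of indexed references.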

Row | SMILES | Hepatotoxicity (moderate) [1] | Hepatotoxicity (choleostasis) [2] | Hepatotoxicity (acute) [3] | Hepatotoxicity (benign tumour) [4] | Hepatotoxicity (moderate) [5] | Hepatotoxicity (chronic liver disease) [6] | Hepatotoxicity (cirrhosis) [7] | Hepatotoxicity (severe hepatitis) [8] | Hepatotoxicity (association with vascular disease) [9] | Hepatotoxicity (cytolytic) [10] | Hepatotoxicity (acute) [11] | Hepatotoxicity (steatosis) [12] | Hepatotoxicity (malignant tumour) [13] | Hepatotoxicity (granulomatous hepatitis) [14] | Hepatotoxicity (choleostasis) ([2]; Liver) | Hepatotoxicity (acute) ([3]; Liver) | Hepatotoxicity (moderate) ([5]; Liver) | Hepatotoxicity (severe hepatitis) ([8]; Liver) | Hepatotoxicity (cytolytic) ([10]; Liver) | Hepatotoxicity (granulomatous hepatitis) ([14]; Liver)
1 | Nc1ncc2ncn(COCCO)c2n1 [DESCICLOVIR] | 1 | 0 | 0% | 0 | 15.4% | 0 | 0 | 0 | 0 | 0 | 0 | 0 | 0 | 0 |  |  |  |  |  | 
2 | CCOC(OCC)C(=O)OCC(=O)[C@]1(O)Cc2c(O)c3c(c(O)c2[C@@H](O[C@H]2C[C@H](N)[C@H](O)[C@H](C)O2)C1)C(=O)c1c(OC)cccc1C3=O [DETORUBICIN] | 2 | 0 | 0% | 0 | 9.4% | 0 | 0 | 0 | 0 | 0 | 0 | 0 | 0 | 0 |  |  |  |  |  | 
3 | N[C@H](Cc1cc(I)c(Oc2cc(I)c(O)c(I)c2)c(I)c1)C(=O)O [DEXTROTHYROXINE] | 1 | 0 | 0% | 0 | 40.2% | 0 | 0 | 0 | 0 | 0 | 0 | 0 | 0 | 0 |  |  |  |  |  | 
4 | CC(=O)Nc1c(I)c(NC(C)=O)c(I)c(C(=O)O)c1I [DIATRIZOIC ACID] | 1 | 0 | 0% | 0 | 0% | 0 | 0 | 0 | 0 | 0 | 0 | 0 | 0 | 0 |  |  |  |  |  | 
5 | CCOC(=O)NC1=C(N2CC2)C(=O)C(NC(=O)OCC)=C(N2CC2)C1=O [DIAZIQUONE] | 5 | 0 | 0% | 0 | 50% | 0 | 0 | 0 | 0 | 0 | 0 | 0 | 0 | 0 |  |  |  |  |  | 
6 | Oc1ccc(Cl)cc1Cc1cc(Cl)ccc1O [DICHLOROPHEN] | 0 | 1 | 0% | 0 | 0% | 0 | 0 | 0 | 0 | 2 | 2 | 0 | 0 | 0 |  |  |  |  |  | 
7 | CCN(CC)C(=O)N1CCN(C)CC1 [DIETHYLCARBAMAZINE] | 1 | 0 | 0% | 0 | 0% | 0 | 0 | 0 | 0 | 0 | 0 | 0 | 0 | 0 |  |  |  |  |  | 
8 | C[C@H]1O[C@@H](O[C@H]2[C@@H](O)C[C@H](O[C@H]3[C@@H](O)C[C@H](O[C@H]4CC[C@@]5(C)[C@H](CC[C@@H]6[C@@H]5C[C@@H](O)[C@]5(C)[C@@H](C7=CC(=O)OC7)CC[C@]65O)C4)O[C@@H]3C)O[C@@H]2C)C[C@H](O)[C@@H]1O [DIGOXIN] | 1 | 0 | 0% | 0 | 8.3% | 0 | 0 | 0 | 0 | 0 | 0 | 0 | 0 | 0 |  |  |  |  |  | 
9 | CN(C)CCCN1c2ccccc2C(C)(C)c2ccccc21 [DIMETACRINE] | 1 | 0 | 0% | 0 | 0% | 0 | 0 | 0 | 0 | 0 | 0 | 0 | 0 | 0 |  |  |  |  |  | 
10 | CN(C)CCOC(c1ccccc1)c1ccccc1 [DIPHENHYDRAMINE] | 1 |  |  | 0 |  | 0 | 0 |  | 0 |  | 0 | 0 | 0 |  | 0 | 0% | 1.4% | 0 | 0 | 0
11 | OC(CCCN1CCCCC1)(c1ccccc1)c1ccccc1 [DIPHENIDOL] | 0 | 0 | 0% | 0 | 0% | 0 | 0 | 0 | 0 | 0 | 1 | 0 | 0 | 0 |  |  |  |  |  | 
12 | CCC(C)(C)NCC(O)COc1ccccc1C(=O)CCc1ccccc1 (stereo not given) [DIPRAFENONE] | 3 | 1 | 1.6% | 0 | 3.7% | 0 | 0 | 0 | 0 | 0 | 1 | 0 | 0 | 0 |  |  |  |  |  | 
13 | CC[C@H]1OC(=O)[C@H](C)[C@@H](O[C@H]2C[C@@](C)(OC)[C@@H](O)[C@H](C)O2)[C@H](C)[C@@H](O[C@@H]2O[C@H](C)C[C@H](N(C)C)[C@H]2O)[C@](C)(O)C[C@@H](C)[C@@H]2N[C@@H](COCCOC)O[C@H]([C@H]2C)[C@]1(C)O [DIRITHROMYCIN] | 3 | 0 | 0% | 0 | 28.6% | 0 | 0 | 0 | 0 | 0 | 0 | 0 | 0 | 0 |  |  |  |  |  | 
14 | O=C(O[C@@H]1C[C@@H]2C[C@H]3C[C@H](C1)N2CC3=O)c1c[nH]c2ccccc12 [DOLASETRON] | 1 | 0 | 0% | 0 | 6.7% | 0 | 0 | 0 | 0 | 0 | 0 | 0 | 0 | 0 |  |  |  |  |  | 
15 | COc1cc2nc(N3CCN(C(=O)C4COc5ccccc5O4)CC3)nc(N)c2cc1OC (stereo not given) [DOXAZOSIN] | 2 | 0 | 0% | 0 | 2.9% | 0 | 0 | 0 | 0 | 0 | 0 | 0 | 0 | 0 |  |  |  |  |  | 
